Here are results for one compound from publication PMC9929129, “Towards Translation of PqsR Inverse Agonists: From In Vitro Efficacy Optimization to In Vivo Proof‐of‐Principle” (Advanced Science, 2023).

Usually IC50 stands for the concentration needed to halve the response being measured.

“And” between values parts separate entries of the source, which are not always exact repeats. Identical values can stand only once. Some results are limits rather than exact numbers.

In test [1] the test system is Pseudomonas aeruginosa PA14. Description: Pyocyanin assay in Pseudomonas aeruginosa. Conditions: PA14, 16 h, read-out: IC50 Pyocyanin. Format: cell-based. As for the experimental part: 1.2.2 Pyocyanin assay in Pseudomonas aeruginosa
Inhibition of pyocyanin biosynthesis of compounds was measured spectrophotometrically as previously described.[2] Pseudomonas aeruginosa PA14 was grown in rich medium for 16 h under agitation with and without compound. Pyocyanin was extracted from cultures with chloroform, then re-extracted with 0.2 M HCl and quantified photometrically (520 nm). IC50 values were determined from dose-response curves of compounds using at least six different concentrations and fitting with non-linear regression analysis (OriginPro 2017–2020, Originlab Corporation). […]

Test [2] deals with Na+ channel (site 2). The test is described as follows: Cerep panel binding assay. More on the design: species or system rat. Conditions: 10 µM, antagonist radioligand. As to the method: 1.4 Safety Pharmacology of Compound 24
1.4.1 Cerep panel (Eurofins)
Compound 24 was further profiled for its off-target interactions against a panel of 44 targets. The
screening was done by Eurofins Pharma Discovery within the SafetyScreen44 Panel (Cerep, ITEM
P270). In all assays binding/functional inhibition was determined at 10 µM.
Table S6. […]

Test [3] concerns the target T1, TRPV4 channel (Homo sapiens, UniProt Q9HBA0).
T1 construct: host or cells: CHO cells
Description: Ion channel profiling at Charles River: TRPV4. It counts as cell-based. Particulars: expressed in CHO cells; read-out: ESTIMATED IC50. As to the method:
1.4.3 Ion Channel Profiling at Charles River
Table S9. Compound 24 was tested against the following ion channels at Charles River Laboratories. […]
ScreenPatch Assay Kv1.3 potassium channel (human KCNA3 gene) expressed in CHO […]
FLIPR Assay expressed in HEK293 cells
GABAA α5/β3/γ2 ionotropic receptor (human GABRA5, GABRB3, >30 and GABRG2 genes, expressed in HEK293 cells […]
An increase in the number of colonies of at least two-fold over baseline (mean + SD of the vehicle control) and a dose response indicate a positive response. An […]
different from the vehicle control.
Where indicated, S9 fraction from the livers of Aroclor 1254-treated rats were included in the incubation at a final concentration of 4.5%. A NADPH-regenerating system was also included to ensure a steady supply of reducing equivalents.

The subject of test [4] is 14 PA clinical isolates from bronchiectasis patients. The test is described as follows: Pyocyanin inhibition assay in clinical isolates. Format: cell-based, Pseudomonas aeruginosa. Particulars: 2 × 10^−6 M 24, LB-medium, 16 h. As for the experimental part: Pyoverdine determinations. Precultures of each strain were grown 20 h at 37°C in M9 minimal […]
with 30 mM succinate, 2 mM MgSO , 10 μM FeSO and 2.5 mL L−1 of trace elements solution.[10] Next, […]
5 µl of each culture were transferred to 10 ml of M9 minimal medium devoid of iron and trace element solution, and cultured again for 24 h at 37°C with constant shaking. After incubation, the OD600 of the cultures was determined: The cell contained in 1 mL medium were harvested by centrifugation (5 min; 14,000 rpm) and the absorbance at 405 nm (A405nm) of 0.8 ml of the supernatant was determined spectrophotometrically and normalized to the OD600 of the culture measured before (i.e. A405nm, OD600-1). PA14 and PAO1 were also assayed as controls. The experiments were carried out at least in triplicates.
Pyocyanin inhibition assay. The inhibition of pyocyanin production in the clinical isolates (CIs) and the type strains (PA14 and PAO1) was tested by the treatment of LB-grown cultures incubated for 16 h at 37°C with constant shaking with 2 µM of 24/DMSO or with 2 µl of DMSO as control. Pyocyanin extraction and quantification were carried out as described in section 1.2.2. Pyocyanin concentrations (μg mL −1) were calculated by multiplication of its absorbance at 520 nm with a […]
correction factor of 17.072, and normalized to the OD600 of the culture.

T1 sequence (Q9HBA0 whole entry): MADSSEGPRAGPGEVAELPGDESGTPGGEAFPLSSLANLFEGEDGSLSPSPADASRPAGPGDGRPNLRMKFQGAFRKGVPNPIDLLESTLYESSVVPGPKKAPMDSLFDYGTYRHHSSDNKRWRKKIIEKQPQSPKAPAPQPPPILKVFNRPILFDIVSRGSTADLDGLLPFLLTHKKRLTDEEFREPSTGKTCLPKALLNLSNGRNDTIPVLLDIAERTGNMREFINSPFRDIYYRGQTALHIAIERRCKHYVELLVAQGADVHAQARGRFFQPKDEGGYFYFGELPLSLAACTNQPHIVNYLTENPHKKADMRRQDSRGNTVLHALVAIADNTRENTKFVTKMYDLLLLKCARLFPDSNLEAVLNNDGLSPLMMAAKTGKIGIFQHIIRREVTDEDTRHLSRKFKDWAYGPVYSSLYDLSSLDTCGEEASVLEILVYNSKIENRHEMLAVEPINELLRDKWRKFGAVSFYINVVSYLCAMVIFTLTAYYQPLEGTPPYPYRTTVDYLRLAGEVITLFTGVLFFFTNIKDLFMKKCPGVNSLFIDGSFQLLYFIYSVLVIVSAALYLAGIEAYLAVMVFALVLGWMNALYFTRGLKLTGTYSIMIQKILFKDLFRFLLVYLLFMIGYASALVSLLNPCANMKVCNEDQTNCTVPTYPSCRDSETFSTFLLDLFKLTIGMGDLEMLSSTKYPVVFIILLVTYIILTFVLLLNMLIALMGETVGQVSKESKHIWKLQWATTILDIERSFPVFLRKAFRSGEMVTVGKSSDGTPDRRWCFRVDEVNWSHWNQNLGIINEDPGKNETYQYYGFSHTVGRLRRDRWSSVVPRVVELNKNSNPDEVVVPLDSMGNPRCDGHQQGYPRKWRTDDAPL

Regarding `CC(C)Oc1ccc(-c2ncc(CNc3ccnc(C(F)(F)F)c3)cn2)cc1Cl` [Compound 24], the results for the IC50 in test [1] and in test [3] were 0.245 ± 0.04 µM and more than 30 µM, respectively. The “BINDING (%)” value in test [2] was 57.2% and > 50%. Also, in test [4], the “Production of pyocyanin by clinical isolates” value is on record as “dramatic reduction”.
